Calls of active or inactive are those of the source. The rule behind the calls is not given here.

Assay [1] deals with Receptor tyrosine-protein kinase erbB-2 (Homo sapiens) (UniProt P04626). Briefly: Ratio of HER-2 inhibition by diastereomers.
Assay [2] addresses Receptor tyrosine-protein kinase erbB-4 (Homo sapiens) (UniProt Q15303). Briefly: Ratio of HER-4 inhibition by diastereomers.
Assay [3] has the same target. Briefly: Ratio of HER-4 inhibition by diastereomers (inactive).

Chain of Receptor tyrosine-protein kinase erbB-4 (Homo sapiens) (Q15303 whole entry): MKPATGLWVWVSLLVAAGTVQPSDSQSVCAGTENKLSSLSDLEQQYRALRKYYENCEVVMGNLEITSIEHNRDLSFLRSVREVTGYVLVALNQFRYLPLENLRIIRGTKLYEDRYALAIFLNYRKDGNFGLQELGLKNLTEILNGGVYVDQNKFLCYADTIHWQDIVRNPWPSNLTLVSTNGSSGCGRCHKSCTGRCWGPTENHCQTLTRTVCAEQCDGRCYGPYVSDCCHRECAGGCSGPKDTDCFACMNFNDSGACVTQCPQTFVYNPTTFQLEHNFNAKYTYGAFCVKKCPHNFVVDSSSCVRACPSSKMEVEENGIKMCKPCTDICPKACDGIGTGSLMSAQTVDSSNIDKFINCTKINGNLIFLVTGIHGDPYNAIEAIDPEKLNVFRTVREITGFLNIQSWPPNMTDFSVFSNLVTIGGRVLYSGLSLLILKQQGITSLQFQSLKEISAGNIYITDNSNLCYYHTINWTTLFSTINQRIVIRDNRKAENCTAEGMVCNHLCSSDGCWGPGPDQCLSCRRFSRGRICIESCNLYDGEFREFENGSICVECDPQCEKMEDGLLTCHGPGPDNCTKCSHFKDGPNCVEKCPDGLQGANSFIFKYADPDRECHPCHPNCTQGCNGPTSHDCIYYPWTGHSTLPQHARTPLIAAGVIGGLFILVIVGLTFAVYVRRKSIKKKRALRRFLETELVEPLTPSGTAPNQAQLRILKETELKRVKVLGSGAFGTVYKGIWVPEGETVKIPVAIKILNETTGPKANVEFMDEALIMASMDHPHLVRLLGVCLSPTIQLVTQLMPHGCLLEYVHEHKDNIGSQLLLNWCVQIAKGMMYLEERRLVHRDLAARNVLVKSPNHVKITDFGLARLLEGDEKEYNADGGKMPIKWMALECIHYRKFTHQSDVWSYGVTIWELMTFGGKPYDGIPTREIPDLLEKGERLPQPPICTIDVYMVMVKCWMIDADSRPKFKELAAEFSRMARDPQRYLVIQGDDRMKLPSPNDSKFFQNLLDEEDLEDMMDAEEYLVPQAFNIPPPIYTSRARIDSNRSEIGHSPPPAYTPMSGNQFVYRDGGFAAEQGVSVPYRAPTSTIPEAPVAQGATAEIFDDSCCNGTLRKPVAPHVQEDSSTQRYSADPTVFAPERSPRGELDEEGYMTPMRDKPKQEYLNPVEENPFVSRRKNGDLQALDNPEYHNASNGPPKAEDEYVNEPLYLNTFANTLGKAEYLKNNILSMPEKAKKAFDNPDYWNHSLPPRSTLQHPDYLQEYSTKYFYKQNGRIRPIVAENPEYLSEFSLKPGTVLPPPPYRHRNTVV
Chain of Receptor tyrosine-protein kinase erbB-2 (Homo sapiens) (P04626 whole entry): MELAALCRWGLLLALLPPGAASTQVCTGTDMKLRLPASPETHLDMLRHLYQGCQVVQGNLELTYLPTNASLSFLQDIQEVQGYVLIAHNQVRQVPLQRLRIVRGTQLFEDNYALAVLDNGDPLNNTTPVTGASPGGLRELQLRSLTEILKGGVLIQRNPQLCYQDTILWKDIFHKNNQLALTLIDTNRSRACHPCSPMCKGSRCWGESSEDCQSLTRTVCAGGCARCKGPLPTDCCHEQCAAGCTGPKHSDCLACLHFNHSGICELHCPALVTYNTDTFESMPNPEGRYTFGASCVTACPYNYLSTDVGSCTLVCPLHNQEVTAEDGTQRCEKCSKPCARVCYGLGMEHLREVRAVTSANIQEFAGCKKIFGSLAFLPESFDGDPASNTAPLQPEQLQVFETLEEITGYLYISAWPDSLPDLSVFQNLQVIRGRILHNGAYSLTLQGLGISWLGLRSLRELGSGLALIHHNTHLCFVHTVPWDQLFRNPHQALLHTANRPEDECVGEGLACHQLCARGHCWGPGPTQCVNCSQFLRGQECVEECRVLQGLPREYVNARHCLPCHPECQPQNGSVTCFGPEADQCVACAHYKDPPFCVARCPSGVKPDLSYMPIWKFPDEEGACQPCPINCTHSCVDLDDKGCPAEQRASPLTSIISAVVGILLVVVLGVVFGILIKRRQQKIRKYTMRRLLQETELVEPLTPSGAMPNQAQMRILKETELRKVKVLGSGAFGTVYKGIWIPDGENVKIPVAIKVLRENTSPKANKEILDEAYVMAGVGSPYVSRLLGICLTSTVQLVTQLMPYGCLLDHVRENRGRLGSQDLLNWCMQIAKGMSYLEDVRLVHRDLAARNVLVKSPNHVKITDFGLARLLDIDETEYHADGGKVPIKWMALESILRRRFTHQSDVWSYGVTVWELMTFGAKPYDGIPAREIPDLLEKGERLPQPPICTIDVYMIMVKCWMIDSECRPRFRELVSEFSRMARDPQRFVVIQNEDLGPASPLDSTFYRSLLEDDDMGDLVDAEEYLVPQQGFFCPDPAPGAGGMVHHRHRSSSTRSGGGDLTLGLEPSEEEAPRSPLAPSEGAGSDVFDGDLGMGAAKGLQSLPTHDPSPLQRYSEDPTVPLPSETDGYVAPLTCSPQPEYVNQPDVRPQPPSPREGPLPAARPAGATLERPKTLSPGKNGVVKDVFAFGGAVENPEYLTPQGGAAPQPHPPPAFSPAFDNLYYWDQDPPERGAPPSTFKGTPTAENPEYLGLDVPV

`CCOC1CC2(C[C@H]3O[C@@H](n4cnc5c(N)ncnc54)[C@H](O)[C@@H]3O)OC1(C(=O)OC)C(=O)N2C` (some centres not stated): the Selectivity in assay [1] amounted to 34.4; in assay [2], 1.6.

With `CCOC1CC2(C)OC1(C(=O)NC[C@H]1O[C@@H](n3cnc4c(N)ncnc43)[C@H](O)[C@@H]1O)C(=O)N2C` (some centres not stated), in assay [1], the Selectivity is 9.1. Moreover, the Selectivity entry in assay [3] is “inactive”.

Regarding `CCOC1CC2(C[C@H]3O[C@@H](n4cnc5c(NC(=O)OCc6ccccc6)ncnc54)[C@H](O)[C@@H]3O)OC1(C(=O)OC)C(=O)N2C.CCOC1C[C@@]2(C[C@H]3O[C@@H](n4cnc5c(NC(=O)OCc6ccccc6)ncnc54)[C@H](O)[C@@H]3O)OC1(C(=O)OC)C(=O)N2C` (some centres not stated), the Selectivity in assay [1] came to 3.1. The Selectivity entry in assay [3] was “inactive”.

`CN1C(=O)C2(C(N)=O)O[C@@]1(C)CC2OC(=O)NC[C@H]1O[C@@H](n2cnc3c(N)ncnc32)[C@H](O)[C@@H]1O.CN1CC2(C(N)=O)O[C@]1(C)C(=O)C2OC(=O)NC[C@H]1O[C@@H](n2cnc3c(N)ncnc32)[C@H](O)[C@@H]1O` (some centres not stated): the Selectivity in assay [1] is 54.7; in assay [2], 1.2.

For `CCOC1CC2OC1(C(=O)OC)C(=O)N2C[C@H]1O[C@@H](n2cnc3c(N)ncnc32)[C@H](O)[C@@H]1O.CCOC1C[C@@]2(C)OC1(C(=O)OC)C(=O)N2C[C@H]1O[C@@H](n2cnc3c(N)ncnc32)[C@H](O)[C@@H]1O` (some centres not stated), the Selectivity in assay [1] stood at 4.8; in assay [2], 1.4.

On to `CCOC1CC2(C)OC1(C(=O)OC)C(=O)N2C[C@H]1O[C@@H](n2cnc3c(NC(=O)OCc4ccccc4)ncnc32)[C@H](O)[C@@H]1O.CCOC1C[C@@]2(C)OC1(C(=O)OC)C(=O)N2C[C@H]1O[C@@H](n2cnc3c(NC(=O)OCc4ccccc4)ncnc32)[C@H](O)[C@@H]1O` (some centres not stated), for which the Selectivity in assay [1] is 1.7. Besides, the Selectivity result in assay [3] is “inactive”.

These data come from ChEMBL document CHEMBL1136299, “Adenosine-anchored triphosphate subsite probing: distinguishing between HER-2 and HER-4 tyrosine protein kinases” (Bioorg Med Chem Lett, 2003).
